Data on 9 molecules can be found in ChEMBL document CHEMBL5365410, “SAR of L-ABBA analogs for GGT1 inhibitory activity and L-ABBA's effect on plasma cysteine and GSH species” (Bioorg Med Chem Lett, 2023).

The nature of data set [1]: Inhibition of bovine GGT1 assessed as GSH hydrolysis by measuring inhibition constant. Further details: species or system Bos taurus.
Data set [2] is described as follows: Inhibition of bovine GGT1 transpeptidation assessed as inhibition constant. More on the design: species or system Bos taurus.
Data set [3] concerns the target T1, Glutathione hydrolase 1 proenzyme (Homo sapiens, UniProt P19440). Kind of data set: Inhibition of GGT1 (unknown origin) transpeptidation assessed as inhibition constant using L-GpNA as substrate in presence of Gly-Gly.
In data set [4] the target is T1, Glutathione hydrolase 1 proenzyme. The data set can be described thus: Inhibition of GGT1 (unknown origin) assessed as GSH hydrolysis by measuring inhibition constant.
For data set [5] the target is unchanged. Kind of data set: Inhibition of GGT1 (unknown origin) transpeptidation at 9100 uM using L-GpNA as substrate in presence of Gly-Gly relative to control.
A short description of data set [6]: Half life in C57BL/6 mouse at 0.3 mg/kg, ip. The format is ADME, organism-based. Conditions: in vivo.
Data set [7] can be described thus: In-vivo inhibition of GGT1 in mouse assessed as decrease in GSH level in plasma at 0.03 mg measured at 24 to 48 hrs. The format is functional. Particulars: time 24-48 hrs.
The nature of data set [8]: In-vivo inhibition of GGT1 in mouse assessed as increase in GSH-NEM level in plasma at 0.03 mg measured after 6 hrs. In kind it is functional. Conditions: values are per cent of control.
A short description of data set [9]: MRT in C57BL/6 mouse at 0.3 mg/kg, ip. In kind it is ADME, organism-based. Conditions: in vivo.
The nature of data set [10]: In-vivo inhibition of GGT1 in mouse assessed as increase in GSSG level in plasma at 0.03 mg measured after 6 hrs. The format is functional. Conditions: values are per cent of control.
For data set [11], the system named is Mus musculus. Kind of data set: In-vivo inhibition of GGT1 in mouse assessed as effect on GSSG level in plasma measured at 0.5 to 48 hrs. In kind it is functional. Particulars: dose 0.2-1 mg, time 0.5-48 hrs.
Data set [12] in a line: In-vivo inhibition of GGT1 in mouse assessed as decrease in cystine level in plasma at 0.03 mg measured after 1 hrs. In kind it is functional.
Data set [13] can be described thus: In-vivo inhibition of GGT1 in mouse assessed as increase in cystine level in plasma measured after 1 hrs. In kind it is functional.
Data set [14] can be described thus: In-vivo inhibition of GGT1 in mouse assessed as decrease in GSH level in plasma at 0.03 mg measured at 24 hrs. The format is functional.
Data set [15] concerns Mus musculus. The data set can be described thus: In-vivo inhibition of GGT1 in mouse assessed as increase in GSH level in plasma at 0.03 mg measured after 48 hrs. The format is functional.
A short description of data set [16]: In-vivo inhibition of GGT1 in mouse assessed as increase in cystine-NEM level in plasma measured after 1 hrs. In kind it is functional.
The test system of data set [17] is Mus musculus. The data set can be described thus: In-vivo inhibition of GGT1 in mouse assessed as effect on GSH level in plasma measured at 0.5 to 48 hrs. In kind it is functional. Conditions: dose 0.2-1 mg, time 0.5-48 hrs.
Data set [18] deals with Mus musculus. The data set can be described thus: In-vivo inhibition of GGT1 in mouse assessed as effect on cysteine level in plasma measured at 0.5 to 48 hrs. Conditions: dose 0.2-1 mg, time 0.5-48 hrs. The format is functional.
Data set [19] has as its system Mus musculus. Kind of data set: In-vivo inhibition of GGT1 in mouse assessed as decrease in total cysteine level in plasma at 0.03 mg measured after 48 hrs. In kind it is functional.
Data set [20] is described as follows: Clearance in C57BL/6 mouse at 0.3 mg/kg, ip. In kind it is ADME, organism-based. Particulars: in vivo.
The test system of data set [21] is Mus musculus. Kind of data set: In-vivo inhibition of GGT1 in mouse assessed as effect on GSSG level in plasma at 0.2 to 1 mg. The format is functional. Conditions: dose 0.2-1 mg, time 0.5-48 hrs, TDE = time-dependent effect.
Data set [22] can be described thus: Volume of distribution at steady in C57BL/6 mouse at 0.3 mg/kg, ip. The format is ADME, organism-based. Conditions: in vivo.
Data set [23] can be described thus: In-vivo inhibition of GGT1 in mouse assessed as increase in total GSH level in plasma at 0.03 mg measured after 6 hrs. In kind it is functional. Conditions: values are per cent of control.
The nature of data set [24]: In-vivo inhibition of GGT1 in mouse assessed as decrease in GSH level in plasma at 0.03 mg measured at 48 hrs. In kind it is functional.
Data set [25] is described as follows: In-vivo inhibition of GGT1 in mouse assessed as decrease in GSH level in plasma at 0.03 mg measured after 1 hr. In kind it is functional.
Data set [26] in a line: In-vivo inhibition of GGT1 in mouse assessed as increase in GSH level in plasma at 0.03 to 1 mg measured after 1 hrs. The format is functional. Particulars: dose 0.03-1 mg, values are per cent of control.
Data set [27] can be described thus: In-vivo inhibition of GGT1 in mouse assessed as decrease in total cysteine level in plasma at 0.03 mg measured after 1 hrs. In kind it is functional.
A short description of data set [28]: Cmax in C57BL/6 mouse at 0.3 mg/kg, ip. Further details: dose 0.3 mg/kg, route ip. In kind it is ADME, organism-based. Particulars: in vivo.
The subject of data set [29] is Mus musculus. The data set can be described thus: In-vivo inhibition of GGT1 in mouse assessed as effect on GSH level in plasma at 0.2 to 1 mg. Conditions: dose 0.2-1 mg, time 0.5-48 hrs, TDE = time-dependent effect. In kind it is functional.
Data set [30] can be described thus: In-vivo inhibition of GGT1 in mouse assessed as decrease in cysteine level in plasma at 0.03 mg measured after 1 hrs. The format is functional.
The nature of data set [31]: In-vivo inhibition of GGT1 in mouse assessed as increase in GSSG level in plasma at 0.03 mg measured after 1 hrs. The format is functional. Conditions: values are per cent of control.
Data set [32] relates to Mus musculus. Kind of data set: In-vivo inhibition of GGT1 in mouse assessed as effect on cysteine level in plasma at 0.2 to 1 mg. Particulars: dose 0.2-1 mg, time 0.5-48 hrs, TDE = time-dependent effect. In kind it is functional.
Data set [33] concerns the target T1, Glutathione hydrolase 1 proenzyme. The data set can be described thus: Inhibition of GGT1 (unknown origin) transpeptidation at 37500 uM using L-GpNA as substrate in presence of Gly-Gly relative to control.
The target is the same in data set [34]. Kind of data set: Inhibition of GGT1 (unknown origin) assessed as GSH hydrolysis at […] relative to control.

Active and inactive are the calls of the source. The rule behind the calls is not given here.

T1 sequence (P19440 1-380 limits assumed): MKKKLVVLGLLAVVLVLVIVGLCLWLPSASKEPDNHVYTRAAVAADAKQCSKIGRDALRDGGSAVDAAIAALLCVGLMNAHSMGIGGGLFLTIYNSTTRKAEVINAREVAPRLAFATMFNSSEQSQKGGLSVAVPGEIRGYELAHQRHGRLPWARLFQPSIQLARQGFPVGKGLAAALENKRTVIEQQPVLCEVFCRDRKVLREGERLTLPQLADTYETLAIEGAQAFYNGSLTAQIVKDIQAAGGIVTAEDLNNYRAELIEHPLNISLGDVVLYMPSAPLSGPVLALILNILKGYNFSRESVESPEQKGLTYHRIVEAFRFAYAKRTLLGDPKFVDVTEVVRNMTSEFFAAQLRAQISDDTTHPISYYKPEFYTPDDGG
T1 sequence (P19440 381-569 limits assumed): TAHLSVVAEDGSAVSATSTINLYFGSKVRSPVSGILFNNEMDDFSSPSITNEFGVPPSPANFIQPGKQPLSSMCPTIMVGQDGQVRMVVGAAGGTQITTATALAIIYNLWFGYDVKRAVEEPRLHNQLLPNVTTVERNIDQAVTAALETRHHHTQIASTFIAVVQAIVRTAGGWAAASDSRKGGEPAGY

On to `N[C@H](CCB(O)O)C(=O)O`, for which the Ki (usually the dissociation constant of the complex between target and ligand, obtained from inhibition or displacement) in data set [1] worked out at 0.077 µM; in [2], 0.045 µM.
For `N[C@@H](CCCB(O)O)C(=O)O`, the Ki in [3] was 3820 µM; in [4] it was more than 4000 µM.
`NCCCB(O)O`: the Ki in [4] is more than 5000 µM. Moreover, the inhibition (usually the drop in the measured response relative to a control, in per cent) in [5] is “inactive”.
Consider `N[C@@H](CCB(O)O)C(=O)O`, for which, in [6], the half-life (usually the time in which the quantity being followed falls by half) was 3.92 h. The “inhibition (INH)” value in data set [7] was 33%; in data set [12] it was 75%; in data set [14], less than 50%; in data set [24], 89%; in data set [25], 85%; in [27], 35%. Also, in [30], the “inhibition (INH)” value is listed as 25%. In addition, the Ki in data set [3] amounted to 0.005 µM; in [1], 0.025 µM; in data set [2] it was 0.005 µM. In addition, the “response, % of control” value in data set [8] amounted to 500%; in data set [10] it was 1500%; in data set [23] it was 1000%; in data set [26], 250%; in data set [31] it was 1000%. The MRT (in general, a mean duration of stay, worked out from the concentration-time curve) in data set [9] stood at 5.42 h. The inhibition result was “Dose-Dependent Effect” with Mus musculus [11]; “Dose-Dependent Effect” with Mus musculus [17]; “Dose-Dependent Effect” in the data set with Mus musculus [18]; “Tde” in the data set on Mus musculus [21]; “Tde” in the data set on Mus musculus [29]; “Tde” with Mus musculus [32]. For the same molecule, the ID50 amounted to 0.002 mg in [13] and 0.22 mg in data set [16]. The inhibition entry with Mus musculus [15] and in the data set with Mus musculus [19] was “Active” throughout. Further, in data set [20], the CL/F (usually the apparent clearance, not corrected for the fraction that reaches the circulation) was 0.0612 mL/min. In data set [22], this molecule had a Vdss of 20.76 mL. Besides, the peak level in data set [28] (Cmax) was 15300 ng/mL.
`O=C(O)CCCB(O)O`: the inhibition in data set [33] and in [34] was 50% in each case.
As for `CC(N)(CCB(O)O)C(=O)O` (racemic), the figures for the Ki in data set [3] and in data set [4] were 0.92 µM and 2.8 µM, respectively.
As for `COc1ccc(Cc2nnc(NS(=O)(=O)c3ccccc3)s2)cc1`, the Ki in [3] stood at 68 µM.
Take `CCCC(N)(CCB(O)O)C(=O)O` (racemic): the Ki in data set [3] was determined as 198 µM; in [4], 703 µM.
Take `CCC(N)(CCB(O)O)C(=O)O` (racemic): the inhibitory constant (Ki) amounted to 444 µM in data set [3] and 874 µM in [4].
